Source: patent US9656962B2, “Ring-contracted morphinans and the use thereof” (Purdue Pharma L.P., priority 2013, dated 2017)

How the values were obtained:
Format in all cases: biochemical
μ-opioid receptor [1] = target: T1, μ-opioid receptor (Homo sapiens (Human), UniProt P35372); experiment: μ-opioid receptor [35S]GTPγS functional assay, U-2 OS cells (Table 5); settings: for Emax: relative to DAMGO; for EC50: μ GTP
Experimental: μ-Opioid Receptor Functional Assay Procedures: [^35S]GTPγS functional assays were conducted using freshly thawed μ-receptor membranes prepared in-house from a cell line expressing recombinant μ opioid receptor in a HEK-293, CHO or U-2 OS cell background, or purchased from a commercial source (Perkin Elmer, Shelton, Conn.; or DiscovRx, Fremont, Calif.). Assay reactions were prepared by sequentially adding the following reagents to binding buffer (100 mM NaCl, 10 mM MgCl2, 20 mM HEPES, pH 7.4) on ice (final concentrations indicated): membrane protein (0.026 mg/mL), saponin ([…]), GDP ([…]) and [^35S]GTPγS (0.20 nM; Perkin Elmer, Shelton, Conn.). The prepared membrane solution (190 μl/well) was transferred to 96-shallow well polypropylene plates containing 10 μl of 20× concentrated stock solutions of the agonist [D-Ala^2, N-methyl-Phe^4 Gly-ol^5]-enkephalin (DAMGO) prepared in dimethyl sulfoxide (DMSO). Plates were incubated for 30 min at about 25° C. with shaking Reactions were terminated by rapid filtration onto 96-well Unifilter GF/B filter plates (Perkin Elmer, Shelton, Conn.) using a 96-well tissue harvester (Perkin Elmer, Shelton, Conn.) followed by three filtration washes with 200 μl of ice-cold wash buffer (10 mM NaH2PO4, 10 mM Na2HPO4, pH 7.4). Filter plates were subsequently dried at 50° C. for 2-3 hours. BetaScint scintillation cocktail (Perkin Elmer, Shelton, Conn.) was added (50 μl/well) and plates were counted using a Packard Top-Count for 1 min/well. Data were analyzed using the sigmoidal dose-response curve fitting functions in GraphPad PRISM v. 3.0, or an in-house function for non-linear, sigmoidal dose-response curve-fitting. [^35S]GTPγS functional assays can also be conducted using freshly thawed μ-receptor membranes prepared from a cell line expressing recombinant μ opioid receptor in a CHO-K1 cell background.
μ GTP Emax (%) is the maximal effect elicited by a compound relative to the effect elicited by DAMGO, a standard μ agonist.

κ-opioid receptor = κ-opioid receptor (Homo sapiens (Human), UniProt P41145); experiment: κ-opioid receptor [35S]GTPγS functional assay, U-2 OS cells (Table 5); settings: for Emax: relative to U69,593; for EC50: κ GTP
Experimental: κ-Opioid Receptor Functional Assay Procedures: Functional [^35S]GTPγS binding assays were conducted as follows. κ opioid receptor membrane solution was prepared by sequentially adding final concentrations of 0.026 μg/μl κ membrane protein (in-house), 10 μg/mL saponin, 3 μM GDP and 0.20 nM [^35S]GTPγS to binding buffer (100 mM NaCl, 10 mM MgCl2, 20 mM HEPES, pH 7.4) on ice. The prepared membrane solution (190 μl/well) was transferred to 96-shallow well polypropylene plates containing 10 μl of 20× concentrated stock solutions of agonist prepared in DMSO. Plates were incubated for 30 min at a temperature of about 25° C. with shaking. Reactions were terminated by rapid filtration onto 96-well Unifilter GF/B filter plates (Perkin Elmer, Shelton, Conn.) using a 96-well tissue harvester (Packard) and followed by three filtration washes with 200 μl ice-cold binding buffer (10 mM NaH2PO4, 10 mM Na2HPO4, pH 7.4). Filter plates were subsequently dried at 50° C. for 2-3 hours. Fifty μl/well scintillation cocktail (Perkin Elmer, Shelton, Conn.) was added and plates were counted in a Packard Top-Count for 1 min/well.
κ GTP Emax (%) is the maximal effect elicited by a compound relative to the effect elicited by U69,593.
The following TABLE 5 provides results on the activity response of certain Compounds of the Invention at the μ- and κ-opioid receptors determined as described above using U-2 OS cells.

μ-opioid receptor [2] = target: T1, μ-opioid receptor; experiment: μ-opioid receptor [35S]GTPγS functional assay, HEK-293 cells (Table 6); settings: for EC50: μ GTP
Outline: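 [35S]GTPγS (0.20 nM) binding in HEK-293 membranes expressing recombinant receptor (0.026 mg/mL protein), with GDP (3 mM) and saponin, HEPES buffer pH 7.4, 30 min at about 25° C. Bound radioactivity collected by filtration and counted. Emax (%) expressed relative to DAMGO from sigmoidal dose-response fits.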

Compound	Emax (μ-opioid receptor [1]) [%]	EC50 (μ-opioid receptor [1]) [µM]	Emax (κ-opioid receptor) [%]	EC50 (κ-opioid receptor) [nM]	EC50 (μ-opioid receptor [1]; bound given in μM) [µM]	Emax (μ-opioid receptor [2]; relative to DAMGO) [%]	EC50 (μ-opioid receptor [2]) [µM]	EC50 (μ-opioid receptor [2]; bound given in μM) [µM]	μ Emax (%) (μ-opioid receptor [2]; relative to DAMGO)
N[C@H]1CC23CCN(CC4CC4)[C@H](Cc4ccc(O)cc42)[C@]3(O)C1 (stereo in doubt) [Compound 29, (2S,3aS,4R,9bS)-2-amino-12-(cyclopropylmethyl)-1,2,3,3a,4,5-hexahydro-4,9b-(epiminoethano)-cyclopenta[a]naphthalene-3a,8-diol]	22 ± 1.73	0.00778 ± 0.00163	107 ± 3.18	0.62 ± 0.04	–	–	–	–	–
COc1ccc2c(c1)[C@]13CCN(CC4CC4)[C@H](C2)[C@]1(O)C[C@H](C(=O)O)C3 [Compound 14, (2R,3aS,4R,9bS)-12-(cyclopropylmethyl)-3a-hydroxy-8-methoxy-1,2,3,3a,4,5-hexahydro-4,9b-(epiminoethano)-cyclopenta[a]naphthalene-2-carboxylic acid]	26.7 ± 2.4	0.126 ± 0.0377	100 ± 2.52	147 ± 11.6	–	–	–	–	–
COc1ccc2c(c1)[C@]13CCN(CC4CC4)[C@H](C2)[C@]1(O)C[C@H](C(=O)N1CCCC1)C3 [Compound 19, ((2R,3aS,4R,9bS)-12-(cyclopropylmethyl)-3a-hydroxy-8-methoxy-1,2,3,3a,4,5-hexahydro-4,9b-(epiminoethano)cyclo-penta[a]naphthalene-2-yl)(pyrrolidin-1-yl)methanone]	29.3 ± 5.93	2.96 ± 0.864	97.7 ± 0.67	4720 ± 150	–	–	–	–	–
COc1ccc2c(c1)[C@]13CCN(CC4CC4)[C@H](C2)[C@]1(O)C[C@@H](C(=O)N1CCCC1)C3 [Compound 20, ((2S,3aS,4R,9bS)-12-(cyclopropylmethyl)-3a-hydroxy-8-methoxy-1,2,3,3a,4,5-hexahydro-4,9b-(epiminoethano)cyclo-penta[a]naphthalene-2-yl)(pyrrolidin-1-yl)methanone]	43.3 ± 2.4	1.23 ± 0.0835	87.7 ± 4.33	4400 ± 357	–	–	–	–	–
COc1ccc2c(c1)[C@]13CCN(CC4CC4)[C@H](C2)[C@]1(O)C[C@H](N)C3 [Compound 21, (2R,3aS,4R,9bS)-2-amino-12-(cyclopropylmethyl)-8-methoxy-1,2,3,3a,4,5-hexahydro-4,9b-(epimino-ethano)cyclopenta[a]naphthalene-3a-ol]	8.67 ± 1.76	–	90 ± 2.08	5590 ± 738	> 20	–	–	–	–
COc1ccc2c(c1)[C@]13CCN(CC4CC4)[C@H](C2)[C@]1(O)C[C@@H](C#N)C3 [Compound 26, (2S,3aS,4R,9bS)-12-(cyclopropylmethyl)-3a-hydroxy-8-methoxy-1,2,3,3a,4,5-hexahydro-4,9b-(epiminoethano)-cyclopenta[a]naphthalene-2-carbonitrile]	63 ± 5.77	1.13 ± 0.117	106 ± 2.03	829 ± 100	–	–	–	–	–
CC(C)CNC(=O)[C@@H]1C[C@]23CCN(CC4CC4)[C@H](Cc4ccc(O)cc42)[C@]3(O)C1 [Compound 35, (2R,3aS,4R,9bS)-12-(cyclopropylmethyl)-3a,8-dihydroxy-N-isobutyl-1,2,3,3a,4,5-hexahydro-4,9b-(epiminoethano)cyclo-penta[a]naphthalene-2-carboxamide]	29.7 ± 0.33	0.0197 ± 0.00527	111 ± 2.96	7.75 ± 0.41	–	–	–	–	–
O=C(NCc1ccc(Cl)cc1Cl)[C@@H]1C[C@]23CCN(CC4CC4)[C@H](Cc4ccc(O)cc42)[C@]3(O)C1 [Compound 44, (2R,3aS,4R,9bS)-12-(cyclopropylmethyl)-N-(2,4-dichlorobenzyl)-3a,8-dihydroxy-1,2,3,3a,4,5-hexahydro-4,9b-(epimino-ethano)cyclopenta[a]naphthalene-2-carboxamide]	28.3 ± 1.86	0.00375 ± 0.00035	94.7 ± 7.13	0.26 ± 0.033	–	–	–	–	–
O=C(NCCc1ccccc1)[C@@H]1C[C@]23CCN(CC4CC4)[C@H](Cc4ccc(O)cc42)[C@]3(O)C1 [Compound 50, (2R,3aS,4R,9bS)-12-(cyclopropylmethyl)-3a,8-dihydroxy-N-phenethyl-1,2,3,3a,4,5-hexahydro-4,9b-(epiminoethano)-cyclopenta[a]naphthalene-2-carboxamide]	23.3 ± 1.86	0.0069 ± 0.00054	107.7 ± 0.88	1.95 ± 0.33	–	–	–	–	–
O=C([C@@H]1C[C@]23CCN(CC4CC4)[C@H](Cc4ccc(O)cc42)[C@]3(O)C1)N1CCCCC1 [Compound 56, ((2R,3aS,4R,9bS)-12-(cyclopropylmethyl)-3a,8-dihydroxy-1,2,3,3a,4,5-hexahydro-4,9b-(epiminoethano)cyclopenta-[a]naphthalen-2-yl)(piperidin-1-yl)methanone]	16 ± 1.53	0.0104 ± 0.00203	97.8 ± 3.67	20.8 ± 1.79	–	–	–	–	–
O=C(NCc1ccc(F)cc1F)[C@H]1C[C@]23CCN(CC4CC4)[C@H](Cc4ccc(O)cc42)[C@]3(O)C1 [Compound 146, (2S,3aS,4R,9bS)-12-(cyclopropylmethyl)-N-(2,4-difluorobenzyl)-3a,8-dihydroxy-1,2,3,3a,4,5-hexahydro-4,9b-(epimino-ethano)cyclopenta[a]naphthalene-2-carboxamide]	–	–	–	–	–	28.3 ± 1.13	0.00222 ± 0.00041	–	–
O=C(NCc1ccc(F)cc1F)[C@@H]1C[C@]23CCN(CC4CC4)[C@H](Cc4ccc(O)cc42)[C@]3(O)C1 [Compound 147, (2R,3aS,4R,9bS)-12-(cyclopropylmethyl)-N-(2,4-difluorobenzyl)-3a,8-dihydroxy-1,2,3,3a,4,5-hexahydro-4,9b-(epimino-ethano)cyclopenta[a]naphthalene-2-carboxamide]	–	–	–	–	–	-1	–	> 20	–
O=C(NCc1ccccc1O)[C@@H]1C[C@]23CCN(CC4CC4)[C@H](Cc4ccc(O)cc42)[C@]3(O)C1 [Compound 149, (2R,3aS,4R,9bS)-12-(cyclopropylmethyl)-3a,8-dihydroxy-N-(2-hydroxybenzyl)-1,2,3,3a,4,5-hexahydro-4,9b-(epimino-ethano)cyclopenta[a]naphthalene-2-carboxamide]	–	–	–	–	–	0	–	> 20	–
O=C(NCc1cc(Cl)cc(Cl)c1)[C@@H]1C[C@]23CCN(CC4CC4)[C@H](Cc4ccc(O)cc42)[C@]3(O)C1 [Compound 150, (2R,3aS,4R,9bS)-12-(cyclopropylmethyl)-N-(3,5-dichlorobenzyl)-3a,8-dihydroxy-1,2,3,3a,4,5-hexahydro-4,9b-(epimino-ethano)cyclopenta[a]naphthalene-2-carboxamide]	–	–	–	–	–	-1	–	> 20	–
O=C(NCc1cc(Cl)ccc1Cl)[C@@H]1C[C@]23CCN(CC4CC4)[C@H](Cc4ccc(O)cc42)[C@]3(O)C1 [Compound 151, (2R,3aS,4R,9bS)-12-(cyclopropylmethyl)-N-(2,5-dichlorobenzyl)-3a,8-dihydroxy-1,2,3,3a,4,5-hexahydro-4,9b-(epimino-ethano)cyclopenta[a]naphthalene-2-carboxamide]	–	–	–	–	–	-1	–	> 20	–
O=C(NCc1cccc(Cl)c1)[C@@H]1C[C@]23CCN(CC4CC4)[C@H](Cc4ccc(O)cc42)[C@]3(O)C1 [Compound 152, (2R,3aS,4R,9bS)-N-(3-chlorobenzyl)-12-(cyclopropylmethyl)-3a,8-dihydroxy-1,2,3,3a,4,5-hexahydro-4,9b-(epimino-ethano)cyclopenta[a]naphthalene-2-carboxamide]	–	–	–	–	–	4.45 ± 3.18	–	> 20	–
(2R,3aS,4R,9bS)-N-(2-chlorobenzyl)-12- (cyclopropylmethyl)-3a,8-dihydroxy- 1,2,3,3a,4,5-hexahydro-4,9b-(epimino- ethano)cyclopenta[a]naphthalene-2- carboxamide [Compound 148]	–	–	–	–	–	–	–	> 20	1.00
